≈ marks a conversion by molar mass, not a printed value.
Columns and labels:
[1] = test system: C. neoformans infection; set-up: method as in PMID 34203688; settings: treated mice; cited from earlier work
[2] = test system: laccase from C. neoformans; settings: cited from earlier work
[3] = test system: Cryptococcus neoformans (ATCC 32045); test: Minimum inhibitory concentration assay, broth microdilution; type: cell-based; settings: YPD, 10^6 cells mL^−1, peptides 50 to 0.004 µg mL^−1, 24 h, absorbance 600 nm, ND = MIC50 not reached, three independent experiments

Q: For O=c1oc2c(O)c(O)cc3c(=O)oc4c(O)c(O)cc1c4c23 [EA, Ellagic acid], which “survival rate toward C. neoformans infection” value [1] is on record?
A: Its value is 70%.

Q: And the “inhibition of laccase from C. neoformans” value [2]?
A: The value was “interacts and inhibits the laccase”.

Q: For CCC(C)n1ncn(-c2ccc(N3CCN(c4ccc(OCC5COC(Cn6cncn6)(c6ccc(Cl)cc6Cl)O5)cc4)CC3)cc2)c1=O (centres unmarked) [Itraconazole], which MIC50 ([3]; Cryptococcus neoformans, ATCC32045, concentration required to inhibit 50% of yeast growth, read-out: MIC50 against C. neoformans) is on record?
A: The MIC50 was 500 µg/mL (≈ 709 µM).

Q: With C[C@@H]1[C@H](O)[C@@H](C)/C=C/C=C/CC/C=C/C=C/C=C/C=C/C(O[C@H]2O[C@H](C)[C@@H](O)[C@H](N)[C@@H]2O)CC2O[C@](O)(CC(O)C(O)CCC(O)CC(O)CC(O)CC(=O)O[C@H]1C)CC(O)C2C(=O)O (some centres unmarked) [Nystatin] as the compound, how does the “MIC50 against C. neoformans” value ([3]; concentration required to inhibit 50% of yeast growth) read?
A: The value was 250 µg/mL (≈ 270 µM).

Q: For OC(Cn1cncn1)(Cn1cncn1)c1ccc(F)cc1F [fluconazole], which “survival rate toward C. neoformans infection” value [1] is on record?
A: The value was 20%.

From PMC9416200, “Antifungal Potential of Synthetic Peptides against Cryptococcus neoformans: Mechanism of Action Studies Reveal Synthetic Peptides Induce Membrane–Pore Formation, DNA Degradation, and Apoptosis” (Pharmaceutics, 2022)
